# Measurements from patent publication US8536172B2, “Inhibitors of JNK” (Roche Palo Alto LLC, priority 2009, dated 2013).
# Experiments:
# [1] = target: Human JNK2α2 (Homo sapiens (Human), UniProt P45984); assay: JNK assay in vitro: phosphorylation of GST-ATF2 (19-96) with [γ-33P] ATP, JNK2; assay type: biochemical; conditions: 1 nM enzyme, 1 μM ATF2, 8 μM ATP (Km), 30° C. 30 min
# Procedure, shortened: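 Radiometric: 1 nM JNK2α2, 1 μM GST-ATF2(19-96), 8 μM ATP with [γ-33P]ATP; enzyme and compound pre-incubated 10 min, then 30 min at 30°C. Product captured on glutathione resin, 33P counted; IC50 from ten-concentration curves fitted to a 3-parameter model.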
# [2] = target: Human JNK1α1 (Homo sapiens (Human), UniProt P45983); assay: JNK assay in vitro: phosphorylation of GST-ATF2 (19-96) with [γ-33P] ATP, JNK1; assay type: biochemical; conditions: 2 nM enzyme, 1 μM ATF2, 6 μM ATP (Km), 30° C. 30 min
# Human JNK1α1, sequence (P45983 other isoform, or with tags, fused parts or gaps): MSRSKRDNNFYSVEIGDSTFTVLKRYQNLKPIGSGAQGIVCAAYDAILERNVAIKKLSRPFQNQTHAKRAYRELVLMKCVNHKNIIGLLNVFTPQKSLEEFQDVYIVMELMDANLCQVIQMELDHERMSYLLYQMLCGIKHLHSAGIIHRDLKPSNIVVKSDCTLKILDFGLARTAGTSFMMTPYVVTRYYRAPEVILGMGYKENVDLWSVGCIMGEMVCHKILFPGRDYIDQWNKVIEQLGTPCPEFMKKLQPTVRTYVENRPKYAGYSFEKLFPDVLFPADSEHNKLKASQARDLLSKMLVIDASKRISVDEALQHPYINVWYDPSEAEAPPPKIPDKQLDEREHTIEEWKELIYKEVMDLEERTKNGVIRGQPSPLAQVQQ
# Protocol: JNK activity was measured by phosphorylation of GST-ATF2 (19-96) with [γ-^33P] ATP. […] Human JNK2α2 assay contains 1 nM enzyme, 1 μM ATF2, 8 μM ATP with 1 uCi [γ-^33P] ATP. Human JNK1α1 assay contains 2 nM enzyme, 1 μM ATF2, 6 μM ATP with 1 μCi [γ-^33P] ATP. […] ATP. The enzyme assay was carried out in the presence or absence of several compound concentrations. JNK and compound were pre-incubated for 10 min., followed by initiation of the enzymatic reaction by adding ATP and the substrate. The reaction mixture was incubated at 30° C. for 30 min. […] The incorporation of ^33P into ATF2 was quantified on a microplate scintillation counter (Packard Topcount). Compound inhibition potency on JNK was measured by IC50 value generated from ten concentration inhibition curves fitted into the 3-parameter model: % inhibition=Maximum/(1+(IC50/[Inhibitor])^slope). Data were analyzed on Microsoft Excel for parameter estimation.
# Human JNK2α2, sequence (P45984 whole entry): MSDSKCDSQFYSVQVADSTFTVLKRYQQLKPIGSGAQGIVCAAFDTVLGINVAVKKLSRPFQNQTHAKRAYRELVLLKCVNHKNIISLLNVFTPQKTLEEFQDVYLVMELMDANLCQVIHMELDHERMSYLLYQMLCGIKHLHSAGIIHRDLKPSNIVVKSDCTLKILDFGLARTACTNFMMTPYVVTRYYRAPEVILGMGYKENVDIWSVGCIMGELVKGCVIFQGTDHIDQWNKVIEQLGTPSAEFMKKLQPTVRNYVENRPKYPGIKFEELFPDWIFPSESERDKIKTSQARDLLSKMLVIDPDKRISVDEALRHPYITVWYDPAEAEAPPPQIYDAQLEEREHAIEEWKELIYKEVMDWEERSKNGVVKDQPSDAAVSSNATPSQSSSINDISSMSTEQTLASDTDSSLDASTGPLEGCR
SMILES,IC50 [1] [nM],IC50 [2] [nM]
"CS(=O)(=O)C1CCN(c2cccc3c2cnn3-c2ccnc(N[C@H]3CC[C@H](O)CC3)n2)CC1 [Compound I-66, 4-{4-[4-(4-Methanesulfonyl-piperidin-1-yl)-indazol-1-yl]-pyrimidin-2-ylamino}-cyclohexanol]",16.7,5.8
"CS(=O)(=O)N[C@H]1CC[C@H](Nc2nccc(-n3ccc4c(N5CCN(C(=O)CC#N)CC5)cccc43)n2)CC1 [Compound I-9, N-[4-(4-{4-[4-(2-Cyano-acetyl)-piperazin-1-yl]-indol-1-yl}-pyrimidin-2-ylamino)-cyclohexyl]-methanesulfonamide]",36.2,5.4
"CS(=O)(=O)N[C@H]1CC[C@H](Nc2nccc(-n3ccc4c(N5CCN(C(=O)CN)CC5)cccc43)n2)CC1 [Compound I-24, N-[4-(4-{4-[4-(2-Amino-acetyl)-piperazin-1-yl]-indol-1-yl}-pyrimidin-2-ylamino)-cyclohexyl]-methanesulfonamide]",477,77.7
"O[C@H]1CC[C@H](Nc2nccc(-n3ccc4c(N5CCCCC5)cccc43)n2)CC1 [Compound I-2, 4-[4-(4-Piperidin-1-yl-indol-1-yl)-pyrimidin-2-ylamino]-cyclohexanol]",654,93.9
"CC(=O)N1CCN(c2cccc3c2ccn3-c2ccnc(N[C@H]3CC[C@H](N(C)S(C)(=O)=O)CC3)n2)CC1 [Compound I-5, N-(4-{4-[4-(4-Acetyl-piperazin-1-yl)-indol-1-yl]-pyrimidin-2-ylamino}-cyclohexyl)-N-methyl-methanesulfonamide]",105,10.3
"N#CCC(=O)N1CCN(c2cccc3c2ccn3-c2ccnc(N[C@H]3CC[C@@H](O)CC3)n2)CC1 [Compound I-57, 3-(4-{1-[2-(4-Hydroxy-cyclohexylamino)-pyrimidin-4-yl]-1H-indol-4-yl}-piperazin-1-yl)-3-oxo-propionitrile]",88.4,15.9
"N#CCC(=O)N1CCN(c2cccc3c2ccn3-c2ccnc(N[C@H]3CC[C@H](O)CC3)n2)CC1 [Compound I-55, 3-(4-{1-[2-(4-Hydroxy-cyclohexylamino)-pyrimidin-4-yl]-1H-indol-4-yl}-piperazin-1-yl)-3-oxo-propionitrile]",23.1,4.4
"CS(=O)(=O)C1CCN(c2cccc3c2ccn3-c2ccnc(N[C@H]3CC[C@H](C(=O)N4CCn5c(nnc5C(F)(F)F)C4)CC3)n2)CC1 [Compound I-51, (4-{4-[4-(4-Methanesulfonyl-piperidin-1-yl)-indol-1-yl]-pyrimidin-2-ylamino}-cyclohexyl)-(3-trifluoromethyl-5,6-dihydro-8H-[1,2,4]triazolo[4,3-a]pyrazin-7-yl)-methanone]",6.2,3.6
